We go through one compound from ChEMBL document CHEMBL5532732, “Structure-Based Rational Design of Constrained Peptides as TIM-3 Inhibitors” (ACS Med Chem Lett, 2024).

Data set [1] can be described thus: Apparent permeability across apical to basolateral in human Caco-2 cells. The format is ADME, cell-based. (Passage across Caco-2 layers is used to estimate intestinal permeability.)
Data set [2] in a line: Stability in simulated Intestinal fluids at pH 6.5 assessed as half life. The format is ADME. To be noted: simulated intestinal fluid.
For the next data set, the species on record is Homo sapiens. To be noted: dose 250.0 nM.
Data set [3] can be described thus: Distribution coefficient, log D of the compound at pH 7.4 by shake flask method. Format: physicochemical. To be noted: octanol/water.
For another data set, the system named is PBMC. The data set is described as follows: Induction of cytokine production in human PBMC cells assessed as increase in IFN-gamma level at 1 uM in the presence of TIM3 stimulation by ELISA method. Format: functional, cell-based. (In general: An ELISA detects its analyte on a solid surface through an enzyme-linked reagent.)
The nature of data set [4]: Stability in rat liver microsomes assessed as half life. Format: ADME, Microsome. In general terms: Microsomes from liver hold many membrane-bound enzymes, among them those of drug oxidation.
The nature of data set [5]: Stability in simulated gastric fluids at pH 1.6 assessed as half life. To be noted: simulated gastric fluid. Format: ADME.
Data set [6] in a line: Stability in human plasma assessed as compound remaining incubated for 2 hrs. The format is ADME, cell-free. To be noted: read-out: Stability.
A short description of data set [7]: Apparent permeability across basolateral to apical in human Caco-2 cells. Format: ADME, cell-based.
Another data set concerns Kasumi 1. The data set is described as follows: Antiproliferative activity against human Kasumi 1 cells at 1 uM. The format is functional, cell-based.

SMILES strings stand for the structures. Activity calls are given as the source filed them. The calls are words filed in the database; no cut-off is given here. Peptide text beside a SMILES is read from it.

Description for Homo sapiens: Inhibition of recombinant human Gal-9 to biotinylated recombinant human TIM3 protein-protein interaction at 250 nM by ELISA method

The term Papp A→B denotes how fast a substance crosses the layer from the apical side. The term half-life denotes the time in which the quantity being followed falls by half. A word on the logD: it is lipophilicity at a set pH, counting ionised and neutral species. As usually defined, the Papp B→A is the apparent permeability from the basolateral to the apical side of a cell layer. `CC[C@H](C)[C@@H]1NC(=O)[C@H](Cc2ccc(O)cc2)NC(=O)[C@H](CS)NC(=O)[C@H](CO)NC(=O)[C@H](Cc2ccccc2)NC(=O)CNC(=O)[C@H](CO)NC(=O)[C@H](CO)NC(=O)[C@H](CO)NC(=O)[C@H](CS)NC(=O)[C@H](Cc2ccc(O)cc2)NC(=O)[C@H](CO)NC1=O` (cyclo(CSSSGFSCYISY)): the Papp A→B in data set [1] worked out at 8.16 ×10⁻⁶ cm/s. The half-life in data set [2] was 16.4 h; in data set [4], 12.4 h; in [5], 8.7 h. Besides, the inhibition entry in the data set filed under Homo sapiens is “Active”. The logD in data set [3] is 3.52. The outcome in the data set with PBMC was Active. In addition, the remaining at 2 h in [6] is 95.4%. The Papp B→A in data set [7] amounted to 12.5 ×10⁻⁶ cm/s. Further, the result with Kasumi 1 was inactive.
